Laboratory results: patent publication US10190120B2, “Zn-DPA complex compounds and siRNA delivery systems containing the same” (KOREA INSTITUTE OF SCIENCE AND TECHNOLOGY, priority 2016, dated 2019)

Columns and labels:
HCT116 cell line = experiment: siRNA delivery efficiency with biotin pre-treatment (competition); type: cell-based; details: biotin 0.5 mM and 5 mM 30 minutes before, molar ratio 1:400, FIG. 6
Method: (§1) According to Experimental Example 1 (1), composites having a molar ratio of siRNA (luciferase siRNA, siLuc) and the Zn-DPA complex compound of 1:50, 1:100, 1:200, 1:400, 1:600, 1:800, and 1:1,000 were prepared, and the concentration of siLuc per sample was adjusted constantly at 20 nM. The composite was treated with ssPEI/CMV-LUC (1 μg) in HeLa, HepG2, and HCT116 cell lines, and was washed with a Dulbecco's phosphate buffered saline solution (DPBS) after 6 hours, and then the composite was treated in a serum-free medium. After 4 hours, the medium was exchanged with a 10% serum medium, and then the samples were cultivated at 37° C. for 24 hours. The cells were washed with the DPBS and were dissolved in a lysis buffer (200 μL), and then the degree of expression of the luciferase was determined by using a microplate fluorescence analyzer (VICTOR 3 V Multilabel Counter, PerkinElmer, Wellesley, Mass.). The results are illustrated in FIG. 5.
(§2) In order to evaluate the delivery efficiency of siRNA (luciferase siRNA, siLuc) for the Zn-DPA complex compound synthesized in Example 1-3, a cell experiment was performed in the same manner as in Experimental Example 4 by classifying the experimental groups into groups treated with biotin at a concentration of 0.5 mM and 5 mM 30 minutes before treating the groups with a composite of siRNA and the Zn-DPA complex compound, or a non-treatment group. […]

HepG2 cell line = experiment: as above; type: cell-based; details: biotin 0.5 mM and 5 mM 30 minutes before, molar ratio 1:400, FIG. 6
Method: as §1, §2

In the case of O=C(CCCCC1SC[C@H]2NC(=O)N[C@@H]12)NCCCCOc1cccc(CN(Cc2ccccn2)Cc2ccccn2)c1 (some centres unmarked) [Example 1-3], the “effect of biotin on cell delivery efficiency / amount of luciferase expressed” value (HCT116 cell line) is reported as “slight” and the “effect of biotin on cell delivery efficiency / amount of luciferase expressed” value (HepG2 cell line) is reported as “significantly varied depending on the presence or absence of biotin”.
